Experimental data reported in paper PMC9719519, “Non-classical ferroptosis inhibition by a small molecule targeting PHB2” (Nature Communications, 2022).

Tests used:
Test in all cases: biochemical
Set-up in all cases: Eurofins recombinant human kinase profiling, remaining kinase activity as % of control, 10 uM ATP
Conditions in all cases: ATP 10 uM; read-out: %Ctrl@10 μM
[1] = molecular target: BTK(R28H)(h) (Homo sapiens, UniProt Q06187, R28H)
How it was run: (§1)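 Activity measured in a commercial panel of 401 recombinant human protein kinases run as a kinase profiling service.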

[2] = molecular target: PAK2(h) (Homo sapiens, UniProt Q13177)
How it was run: as §1

[3] = molecular target: T1, ALK6(h) (Homo sapiens, UniProt O00238)
T1 construct: gene BMPR1B
How it was run: as §1

[4] = molecular target: JAK2(h) (Homo sapiens, UniProt O60674)
How it was run: as §1

[5] = molecular target: T2, SAPK2b(h) (Homo sapiens, UniProt Q15759)
T2 construct: gene MAPK11
How it was run: as §1

[6] = molecular target: MAP4K4(h) (Homo sapiens, UniProt O95819)
How it was run: as §1

[7] = molecular target: CaMKK1(h) (Homo sapiens, UniProt Q8N5S9)
How it was run: as §1

[8] = molecular target: TTBK1(h) (Homo sapiens, UniProt Q5TCY1)
How it was run: as §1

[9] = molecular target: MARK1(h) (Homo sapiens, UniProt Q9P0L2)
How it was run: as §1

[10] = molecular target: T3, PI3 Kinase (p120)(h) (Homo sapiens, UniProt P48736)
T3 construct: gene PIK3CG
How it was run: as §1

[11] = molecular target: T4, NIM1(h) (Homo sapiens, UniProt Q8IY84)
T4 construct: gene NIM1K
How it was run: as §1

[12] = molecular target: T5, IKKα(h) (Homo sapiens, UniProt O15111)
T5 construct: gene CHUK
How it was run: as §1

[13] = molecular target: Ret(h) (Homo sapiens, UniProt P07949)
How it was run: as §1

[14] = molecular target: TBK1(h) (Homo sapiens, UniProt Q9UHD2)
How it was run: as §1

[15] = molecular target: T6, Mnk2(h) (Homo sapiens, UniProt Q9HBH9)
T6 construct: gene MKNK2
How it was run: as §1

[16] = molecular target: TYK2(h) (Homo sapiens, UniProt P29597)
How it was run: as §1

[17] = molecular target: TGFBR1(h) (Homo sapiens, UniProt P36897)
How it was run: as §1

[18] = molecular target: SRPK1(h) (Homo sapiens, UniProt Q96SB4)
How it was run: as §1

[19] = molecular target: CDK2/cyclinA(h) (Homo sapiens, UniProt P24941)
How it was run: as §1

[20] = molecular target: T7, SAPK2a(h) (Homo sapiens, UniProt Q16539)
T7 construct: gene MAPK14
How it was run: as §1

[21] = molecular target: T8, ROCK-I(h) (Homo sapiens, UniProt Q13464)
T8 construct: gene ROCK1
How it was run: as §1

[22] = molecular target: T9, PEK(h) (Homo sapiens, UniProt Q9NZJ5)
T9 construct: gene EIF2AK3
How it was run: as §1

[23] = molecular target: T10, B-Raf(h) (Homo sapiens, UniProt P15056)
T10 construct: gene BRAF
How it was run: as §1

SRPK1(h), sequence (Q96SB4 whole entry): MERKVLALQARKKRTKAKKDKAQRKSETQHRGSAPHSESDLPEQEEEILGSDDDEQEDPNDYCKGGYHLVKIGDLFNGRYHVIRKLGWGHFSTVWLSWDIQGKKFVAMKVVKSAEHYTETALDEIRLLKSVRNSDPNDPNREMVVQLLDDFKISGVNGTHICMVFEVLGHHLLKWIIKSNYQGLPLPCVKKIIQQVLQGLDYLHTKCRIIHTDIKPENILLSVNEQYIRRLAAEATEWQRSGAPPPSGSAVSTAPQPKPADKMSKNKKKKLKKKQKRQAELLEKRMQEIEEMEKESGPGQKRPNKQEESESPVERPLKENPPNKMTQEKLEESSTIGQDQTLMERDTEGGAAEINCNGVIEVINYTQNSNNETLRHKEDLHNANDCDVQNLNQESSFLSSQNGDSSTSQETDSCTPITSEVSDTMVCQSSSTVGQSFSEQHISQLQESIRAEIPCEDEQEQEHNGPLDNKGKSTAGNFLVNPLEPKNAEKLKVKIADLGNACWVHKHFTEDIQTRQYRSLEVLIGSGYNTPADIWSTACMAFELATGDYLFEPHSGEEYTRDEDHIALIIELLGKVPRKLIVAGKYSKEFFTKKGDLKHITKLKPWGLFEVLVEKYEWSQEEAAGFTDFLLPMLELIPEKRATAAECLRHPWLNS
JAK2(h), sequence (O60674 whole entry): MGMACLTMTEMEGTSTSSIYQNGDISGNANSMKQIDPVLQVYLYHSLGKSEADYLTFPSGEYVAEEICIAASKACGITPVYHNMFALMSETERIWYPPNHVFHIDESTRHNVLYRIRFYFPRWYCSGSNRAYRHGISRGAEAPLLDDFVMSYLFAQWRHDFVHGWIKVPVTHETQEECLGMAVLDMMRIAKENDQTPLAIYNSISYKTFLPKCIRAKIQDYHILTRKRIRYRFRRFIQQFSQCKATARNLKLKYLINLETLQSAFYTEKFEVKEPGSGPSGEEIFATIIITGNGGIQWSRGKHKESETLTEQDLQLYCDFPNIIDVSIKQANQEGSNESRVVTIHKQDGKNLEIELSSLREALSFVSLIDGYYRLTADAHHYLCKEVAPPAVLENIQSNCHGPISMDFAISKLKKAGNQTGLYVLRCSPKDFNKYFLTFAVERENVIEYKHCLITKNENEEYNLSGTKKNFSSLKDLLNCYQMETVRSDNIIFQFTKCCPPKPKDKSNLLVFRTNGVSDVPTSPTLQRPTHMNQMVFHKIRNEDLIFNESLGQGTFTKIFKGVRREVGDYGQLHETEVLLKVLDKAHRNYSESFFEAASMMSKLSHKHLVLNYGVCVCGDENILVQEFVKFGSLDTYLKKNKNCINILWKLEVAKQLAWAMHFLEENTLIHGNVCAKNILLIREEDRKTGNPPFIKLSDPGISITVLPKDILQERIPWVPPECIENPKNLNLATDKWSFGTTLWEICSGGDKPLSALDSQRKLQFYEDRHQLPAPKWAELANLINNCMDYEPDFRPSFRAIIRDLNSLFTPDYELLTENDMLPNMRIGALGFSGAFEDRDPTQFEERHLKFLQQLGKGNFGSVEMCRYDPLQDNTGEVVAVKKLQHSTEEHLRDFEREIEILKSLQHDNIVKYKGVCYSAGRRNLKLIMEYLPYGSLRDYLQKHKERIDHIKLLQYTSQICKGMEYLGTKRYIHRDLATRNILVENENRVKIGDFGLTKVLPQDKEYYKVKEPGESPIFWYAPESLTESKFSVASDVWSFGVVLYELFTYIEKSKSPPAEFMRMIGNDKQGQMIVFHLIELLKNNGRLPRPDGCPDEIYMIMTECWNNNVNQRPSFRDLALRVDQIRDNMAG
T2 sequence (Q15759 whole entry): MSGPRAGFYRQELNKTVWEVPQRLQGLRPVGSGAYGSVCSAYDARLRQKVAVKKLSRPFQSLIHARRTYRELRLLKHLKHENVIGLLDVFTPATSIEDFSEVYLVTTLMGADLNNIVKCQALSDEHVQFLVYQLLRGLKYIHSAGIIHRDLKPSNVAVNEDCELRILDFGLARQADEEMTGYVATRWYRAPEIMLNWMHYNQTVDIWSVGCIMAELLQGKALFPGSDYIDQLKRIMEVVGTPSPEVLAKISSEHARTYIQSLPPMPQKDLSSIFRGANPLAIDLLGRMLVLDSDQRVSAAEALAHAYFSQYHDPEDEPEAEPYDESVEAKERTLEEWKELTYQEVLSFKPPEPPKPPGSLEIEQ
T8 sequence (Q13464 whole entry): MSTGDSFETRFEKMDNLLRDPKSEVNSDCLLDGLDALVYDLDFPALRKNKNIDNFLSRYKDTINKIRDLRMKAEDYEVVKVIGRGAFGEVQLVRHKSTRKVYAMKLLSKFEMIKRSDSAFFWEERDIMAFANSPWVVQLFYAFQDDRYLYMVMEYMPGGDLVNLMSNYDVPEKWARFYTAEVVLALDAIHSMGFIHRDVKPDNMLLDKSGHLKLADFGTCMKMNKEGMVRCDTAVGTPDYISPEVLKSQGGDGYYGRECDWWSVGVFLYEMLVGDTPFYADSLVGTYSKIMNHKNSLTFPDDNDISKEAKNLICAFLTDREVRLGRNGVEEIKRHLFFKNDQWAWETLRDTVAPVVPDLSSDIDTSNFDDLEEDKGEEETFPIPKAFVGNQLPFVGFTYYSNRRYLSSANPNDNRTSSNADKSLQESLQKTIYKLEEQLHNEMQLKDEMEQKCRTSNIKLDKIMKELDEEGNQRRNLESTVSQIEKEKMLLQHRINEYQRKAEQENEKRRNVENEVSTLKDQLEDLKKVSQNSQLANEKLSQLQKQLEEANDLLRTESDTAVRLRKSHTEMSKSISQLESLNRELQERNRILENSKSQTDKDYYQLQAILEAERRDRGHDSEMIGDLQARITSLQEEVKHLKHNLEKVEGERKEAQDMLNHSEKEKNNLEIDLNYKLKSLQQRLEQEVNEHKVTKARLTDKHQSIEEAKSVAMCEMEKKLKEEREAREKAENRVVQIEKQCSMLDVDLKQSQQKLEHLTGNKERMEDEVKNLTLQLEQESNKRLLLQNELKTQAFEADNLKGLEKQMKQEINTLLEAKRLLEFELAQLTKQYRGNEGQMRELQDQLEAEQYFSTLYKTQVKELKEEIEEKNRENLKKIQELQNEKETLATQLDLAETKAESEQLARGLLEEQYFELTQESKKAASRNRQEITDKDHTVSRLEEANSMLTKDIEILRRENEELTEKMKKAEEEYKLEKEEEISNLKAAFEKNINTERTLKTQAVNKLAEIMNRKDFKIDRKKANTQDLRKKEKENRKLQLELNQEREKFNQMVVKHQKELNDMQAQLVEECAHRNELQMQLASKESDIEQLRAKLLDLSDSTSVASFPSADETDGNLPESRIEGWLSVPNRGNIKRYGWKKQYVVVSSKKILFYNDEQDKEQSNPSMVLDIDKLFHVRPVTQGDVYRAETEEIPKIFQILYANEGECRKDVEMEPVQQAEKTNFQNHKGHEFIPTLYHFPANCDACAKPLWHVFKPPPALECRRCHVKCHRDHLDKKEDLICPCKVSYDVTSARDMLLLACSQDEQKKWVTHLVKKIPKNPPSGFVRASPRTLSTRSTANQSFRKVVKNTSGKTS
T4 sequence (Q8IY84 whole entry): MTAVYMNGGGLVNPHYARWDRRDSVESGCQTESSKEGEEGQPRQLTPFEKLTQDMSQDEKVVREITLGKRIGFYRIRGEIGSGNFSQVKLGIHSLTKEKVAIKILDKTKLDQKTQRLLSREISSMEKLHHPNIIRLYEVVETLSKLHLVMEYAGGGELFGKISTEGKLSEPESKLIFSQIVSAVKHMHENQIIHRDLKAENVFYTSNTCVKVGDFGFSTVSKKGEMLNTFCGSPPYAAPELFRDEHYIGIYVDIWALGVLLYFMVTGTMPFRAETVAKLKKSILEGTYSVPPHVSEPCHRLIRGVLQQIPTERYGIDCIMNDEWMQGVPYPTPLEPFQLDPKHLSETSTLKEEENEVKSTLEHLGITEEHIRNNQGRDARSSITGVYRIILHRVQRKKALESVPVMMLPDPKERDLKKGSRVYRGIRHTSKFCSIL
PAK2(h), sequence (Q13177 whole entry): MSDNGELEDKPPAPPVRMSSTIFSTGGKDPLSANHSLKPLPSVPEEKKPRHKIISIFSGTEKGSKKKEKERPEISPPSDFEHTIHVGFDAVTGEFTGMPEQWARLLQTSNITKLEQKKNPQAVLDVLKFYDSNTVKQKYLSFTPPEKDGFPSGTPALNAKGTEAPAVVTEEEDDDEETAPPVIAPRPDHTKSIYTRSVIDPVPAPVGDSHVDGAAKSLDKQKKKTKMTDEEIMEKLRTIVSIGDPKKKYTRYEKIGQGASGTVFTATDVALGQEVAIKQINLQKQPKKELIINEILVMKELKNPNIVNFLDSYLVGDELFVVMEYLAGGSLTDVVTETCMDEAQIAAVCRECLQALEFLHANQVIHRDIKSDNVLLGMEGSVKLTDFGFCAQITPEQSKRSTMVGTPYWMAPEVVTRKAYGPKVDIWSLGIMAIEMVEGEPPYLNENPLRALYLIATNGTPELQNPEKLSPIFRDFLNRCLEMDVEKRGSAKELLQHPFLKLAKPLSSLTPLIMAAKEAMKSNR
CaMKK1(h), sequence (Q8N5S9 whole entry): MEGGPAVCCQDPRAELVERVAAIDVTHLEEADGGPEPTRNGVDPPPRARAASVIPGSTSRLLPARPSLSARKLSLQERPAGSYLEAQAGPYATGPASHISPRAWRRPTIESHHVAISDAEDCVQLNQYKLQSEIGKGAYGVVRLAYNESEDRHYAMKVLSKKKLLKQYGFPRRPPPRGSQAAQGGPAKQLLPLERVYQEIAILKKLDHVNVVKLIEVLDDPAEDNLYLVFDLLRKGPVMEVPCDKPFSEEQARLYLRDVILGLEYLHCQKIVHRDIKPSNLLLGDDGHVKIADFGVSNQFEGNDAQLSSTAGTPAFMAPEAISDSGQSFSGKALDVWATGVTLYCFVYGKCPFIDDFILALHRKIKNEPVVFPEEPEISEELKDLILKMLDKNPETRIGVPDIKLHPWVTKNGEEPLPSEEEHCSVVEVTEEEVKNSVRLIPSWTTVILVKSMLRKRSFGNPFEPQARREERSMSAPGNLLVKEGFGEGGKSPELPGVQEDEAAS

SMILES: C1=C(c2nc(-c3cnn(C4CCNCC4)c3)cn3cc(-c4ccccc4)nc23)CCOC1 [YL-939]
- remaining activity at 10 µM [1]: 107%
- remaining activity at 10 µM [2]: 90%
- remaining activity at 10 µM [3]: 105%
- remaining activity at 10 µM [4]: 90%
- remaining activity at 10 µM [5]: 84%
- remaining activity at 10 µM [6]: 86%
- remaining activity at 10 µM [7]: 91%
- remaining activity at 10 µM [8]: 103%
- remaining activity at 10 µM [9]: 95%
- remaining activity at 10 µM [10]: 104%
- remaining activity at 10 µM [11]: 85%
- remaining activity at 10 µM [12]: 92%
- remaining activity at 10 µM [13]: 123%
- remaining activity at 10 µM [14]: 90%
- remaining activity at 10 µM [15]: 74%
- remaining activity at 10 µM [16]: 95%
- remaining activity at 10 µM [17]: 101%
- remaining activity at 10 µM [18]: 107%
- remaining activity at 10 µM [19]: 95%
- remaining activity at 10 µM [20]: 103%
- remaining activity at 10 µM [21]: 94%
- remaining activity at 10 µM [22]: 99%
- remaining activity at 10 µM [23]: 84%
